20 compounds from patent US9359367B2, “Tetrahydroquinazolinone derivatives as PARP inhibitors” (Lupin Limited, priority 2012, dated 2016) can be followed below.

Molecules are shown by their SMILES.

The assay concerns the target T1, PARP1 (Homo sapiens, UniProt P09874).
T1 construct: purchased BPS Bioscience
Description: PARP1 Biochemical Assay (BPS Bioscience kit, chemiluminescence). The following applies: histone-coated plate, biotinilated NAD+, 25° C. for 60 min, luminescence, read-out: PARP 1 inhibition IC50. The method, then: The assay was performed using BPS Bioscience kit. The 96-well strip plate was coated with 50 μl of histone mixture and incubated at 4° C. overnight. Next day the wells were blocked by adding 100 μl of blocking buffer. The plate was washed and 25 μl of appropriate concentration of PARP1 (25-75 ng/well) was added in all the Test and Positive control wells. In Negative control wells enzyme was replaced with 25 μl of water. To it 5 μl each of 10×PARP assay buffer and activated DNA was added in all the wells (Test, Positive and Negative control wells). 10× concentration of test compounds were prepared and 5 μl test compounds were added respective wells. Reaction volume was made up to 45 μl by adding water to all the wells. Finally, 5 μl of 10×PARP assay mixture containing biotinilated NAD^+ was added in each well and the plate was incubated at ambient temperature (25° C.) for 60 min. After washing the plate 50 μl of Streptavidin-HRP was added in each well and incubated the plate at RT for 30 min. The plate was washed and the luminescence was read in PHERAStar plate reader after adding 100 μl of chemiluminescent substrate.
PARP inhibition was calculated using the following formula: % PARP inhibition=100−[(RLU test compound treated sample−RLU negative control)/(RLU Positive control−RLU negative control)×100]
IC50 values were calculated by plotting % inhibition against the respective concentrations of test compounds using GraphPad Prism 5.

T1 sequence (P09874 whole entry): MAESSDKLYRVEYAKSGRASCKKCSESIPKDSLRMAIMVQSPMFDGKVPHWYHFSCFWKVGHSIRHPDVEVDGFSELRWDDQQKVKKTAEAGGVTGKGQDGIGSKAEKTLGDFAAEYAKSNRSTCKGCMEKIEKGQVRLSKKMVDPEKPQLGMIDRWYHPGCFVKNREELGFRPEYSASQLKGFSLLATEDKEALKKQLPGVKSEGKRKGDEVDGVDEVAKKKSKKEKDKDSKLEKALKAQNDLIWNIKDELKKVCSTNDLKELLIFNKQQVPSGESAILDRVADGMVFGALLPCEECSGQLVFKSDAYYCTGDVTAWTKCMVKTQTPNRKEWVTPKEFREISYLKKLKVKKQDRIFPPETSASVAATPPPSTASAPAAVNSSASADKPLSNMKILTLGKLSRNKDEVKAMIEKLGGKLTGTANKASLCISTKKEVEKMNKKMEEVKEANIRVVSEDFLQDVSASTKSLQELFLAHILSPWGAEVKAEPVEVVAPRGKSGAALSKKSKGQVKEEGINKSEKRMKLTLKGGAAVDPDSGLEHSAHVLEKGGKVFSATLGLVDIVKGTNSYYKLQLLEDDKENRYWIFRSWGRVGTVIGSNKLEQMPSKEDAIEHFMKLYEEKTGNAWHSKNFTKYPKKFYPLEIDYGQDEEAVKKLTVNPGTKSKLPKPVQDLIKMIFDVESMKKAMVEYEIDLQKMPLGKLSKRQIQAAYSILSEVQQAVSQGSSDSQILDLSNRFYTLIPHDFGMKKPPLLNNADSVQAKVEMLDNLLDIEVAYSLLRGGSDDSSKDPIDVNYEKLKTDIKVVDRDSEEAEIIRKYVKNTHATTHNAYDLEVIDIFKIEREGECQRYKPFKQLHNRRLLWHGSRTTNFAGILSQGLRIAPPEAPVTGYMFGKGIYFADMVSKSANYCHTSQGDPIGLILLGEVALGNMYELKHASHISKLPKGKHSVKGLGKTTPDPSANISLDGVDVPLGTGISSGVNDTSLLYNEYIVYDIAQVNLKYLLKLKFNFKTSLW

Regarding `O=c1[nH]c(C2=C[C@H](N3CCN(c4ccc(F)cc4)CC3)CC2)nc2c1CCCC21CC1` [Compound 48, (R)-2′-(3-(4-(4-fluorophenyl)piperazin-1-yl)cyclopent-1-en-1-yl)-6′,7′-dihydro-3′H-spiro[cyclopropane-1,8′-quinazolin]-4′(5′H)-one], the IC50 was 1 to 500 nM.
The figure for `O=c1[nH]c(C2=C[C@H](N3CC=C(c4ccc(F)cc4)CC3)CC2)nc2c1CC1(CC2)CC1` [Compound 52, (R)-2′-(3-(4-(4-fluorophenyl)-5,6-dihydropyridin-1 (2H)-yl)cyclopent-1-en-1-yl)-7′,8′-dihydro-3′H-spiro[cyclopropane-1,6′-quinazolin]-4′(5′H)-one] is 1 to 500 nM; for `COc1cc(N2CCN([C@H]3C=C(c4nc5c(c(=O)[nH]4)CC4(CC5)CC4)CC3)CC2)ccc1F` [Compound 114, (R)-2′-(3-(4-(4-fluoro-3-methoxyphenyl)piperazin-1-yl)cyclopent-1-en-1-yl)-7′,8′-dihydro-3′H-spiro[cyclopropane-1,6′-quinazolin]-4′(5′H)-one] it is 1 to 500 nM; for `O=c1[nH]c(CCCN2CC=C(c3ccc(F)cc3)CC2)nc2c1CC1(CC2)CC1` [Compound 9, 2′-(3-(4-(4-fluorophenyl)-5,6-dihydropyridin-1(2H)-yl)propyl)-7′,8′-dihydro-3′H-spiro[cyclopropane-1,6′-quinazolin]-4′(5′H)-one] it is 1 to 500 nM.
The figure for `O=c1[nH]c([C@@H]2CC[C@@H](N3CCN(c4cccc(F)c4)CC3)C2)nc2c1CC1(CC2)CC1` [Compound 156, 2′-((1R,3R)-3-(4-(3-fluorophenyl)piperazin-1-yl)cyclopentyl)-7′,8′-dihydro-3′H-spiro[cyclopropane-1,6′-quinazolin]-4′(5′H)-one] is 5000 to 500000 nM.
In the case of `O=c1[nH]c(CCCN2CCN(c3ccc(Cl)cc3Cl)CC2)nc2c1CC1(CC2)CC1` [Compound 34, 2′-(3-(4-(2,4-dichlorophenyl)piperazin-1-yl)propyl)-7′,8′-dihydro-3′H-spiro[cyclopropane-1,6′-quinazolin]-4′(5′H)-one], the IC50 fell in the range of 1 to 500 nM.
The value for `Cc1cc(F)cc(N2CCN([C@H]3C=C(c4nc5c(c(=O)[nH]4)CC4(CC5)CC4)CC3)CC2)c1` [Compound 126, (R)-2′-(3-(4-(3-fluoro-5-methylphenyl)piperazin-1-yl)cyclopent-1-en-1-yl)-7′,8′-dihydro-3′H-spiro[cyclopropane-1,6′-quinazolin]-4′(5′H)-one] was 501 to 5000 nM; that for `O=c1[nH]c(C2=C[C@H](N3CCN(c4cccc(F)c4F)CC3)CC2)nc2c1CC1(CC2)CC1` [Compound 100, (R)-2′-(3-(4-(2,3-difluorophenyl)piperazin-1-yl)cyclopent-1-en-1-yl)-7′,8′-dihydro-3′H-spiro[cyclopropane-1,6′-quinazolin]-4′(5′H)-one] was 1 to 500 nM.
The figure for `O=c1[nH]c(CCCN2CCN(c3ccc(Cl)cc3)CC2)nc2c1CC1(CC2)CC1` [Compound 6, 2′-(3-(4-(4-chlorophenyl)piperazin-1-yl)propyl)-7′,8′-dihydro-3′H-spiro[cyclopropane-1,6′-quinazolin]-4′(5′H)-one] is 1 to 500 nM.
Consider `Cc1cc(Cl)ccc1N1CCN([C@H]2C=C(c3nc4c(c(=O)[nH]3)CC3(CC4)CC3)CC2)CC1` [Compound 96, (R)-2′-(3-(4-(4-chloro-2-methylphenyl)piperazin-1-yl)cyclopent-1-en-1-yl)-7′,8′-dihydro-3′H-spiro[cyclopropane-1,6′-quinazolin]-4′(5′H)-one], for which the IC50 lay in the range of 1 to 500 nM.
The figure for `CC1(C)CC(c2nc3c(c(=O)[nH]2)CC2(CC3)CC2)=C[C@@H]1N1CCN(c2ccc(F)cc2)CC1` [Compound 71, (S)-2′-(3-(4-(4-fluorophenyl)piperazin-1-yl)-4,4-dimethylcyclopent-1-en-1-yl)-7′,8′-dihydro-3′H-spiro[cyclopropane-1,6′-quinazolin]-4′(5′H)-one] is 5000 to 500000 nM; for `CNC(=O)c1cccnc1N1CCN([C@H]2C=C(c3nc4c(c(=O)[nH]3)CC3(CC4)CC3)CC2)CC1` [Compound 131, (R)—N-methyl-2-(4-(3-(4′-oxo-4′,5′,7′,8′-tetrahydro-3′H-spiro[cyclopropane-1,6′-quinazolin]-2′-yl)cyclopent-2-en-1-yl)piperazin-1-yl)nicotinamide] it is 501 to 5000 nM; for `CNC(=O)c1cnc(N2CCN([C@H]3C=C(c4nc5c(c(=O)[nH]4)CC4(CC5)CC4)CC3)CC2)c(F)c1` [Compound 112, (R)-5-fluoro-N-methyl-6-(4-(3-(4′-oxo-4′,5′,7′,8′-tetrahydro-3′H-spiro[cyclopropane-1,6′-quinazolin]-2′-yl)cyclopent-2-en-1-yl)piperazin-1-yl)nicotinamide] it is 501 to 5000 nM.
Turning to `Cc1ccc(F)cc1N1CCN([C@H]2C=C(c3nc4c(c(=O)[nH]3)CC3(CC4)CC3)CC2)CC1` [Compound 123, (R)-2′-(3-(4-(5-fluoro-2-methylphenyl)piperazin-1-yl)cyclopent-1-en-1-yl)-7′,8′-dihydro-3′H-spiro[cyclopropane-1,6′-quinazolin]-4′(5′H)-one], the IC50 is 1 to 500 nM.
For `Cc1cc(N2CCN([C@H]3C=C(c4nc5c(c(=O)[nH]4)CC4(CC5)CC4)CC3)CC2)ncc1Cl` [Compound 141, (R)-2′-(3-(4-(5-chloro-4-methylpyridin-2-yl)piperazin-1-yl)cyclopent-1-en-1-yl)-7′,8′-dihydro-3′H-spiro[cyclopropane-1,6′-quinazolin]-4′(5′H)-one], the IC50 was in the range of 1 to 500 nM.
The figure for `O=c1[nH]c(C2=C[C@@H](N3CCN(c4ccc(F)cc4)CC3)CC2)nc2c1CCCC21CC1` [Compound 49, (S)-2′-(3-(4-(4-fluorophenyl)piperazin-1-yl)cyclopent-1-en-1-yl)-6′,7′-dihydro-3′H-spiro[cyclopropane-1,8′-quinazolin]-4′(5′H)-one] is 1 to 500 nM.
On to `CN(C)C(=O)c1ccc(N2CCN([C@H]3C=C(c4nc5c(c(=O)[nH]4)CC4(CC5)CC4)CC3)CC2)cc1` [Compound 69, (R)—N,N-dimethyl-4-(4-(3-(4′-oxo-4′,5′,7′,8′-tetrahydro-3′H-spiro[cyclopropane-1,6′-quinazolin]-2′-yl)cyclopent-2-en-1-yl)piperazin-1-yl)benzamide], for which the IC50 lay in the range of 5000 to 500000 nM.
The value for `O=c1[nH]c(C2=C[C@H](N3CCN(c4ccc(-c5ccccc5)nc4)CC3)CC2)nc2c1CC1(CC2)CC1` [Compound 157, (R)-2′-(3-(4-(6-phenylpyridin-3-yl)piperazin-1-yl)cyclopent-1-en-1-yl)-7′,8′-dihydro-3′H-spiro[cyclopropane-1,6′-quinazolin]-4′(5′H)-one] was 501 to 5000 nM; that for `O=c1[nH]c(C2=C[C@H](N3CCN(c4ccc(-c5ccccc5)cc4)CC3)CC2)nc2c1CC1(CC2)CC1` [Compound 158, (R)-2′-(3-(4-([1,1′-biphenyl]-4-yl)piperazin-1-yl)cyclopent-1-en-1-yl)-7′,8′-dihydro-3′H-spiro[cyclopropane-1,6′-quinazolin]-4′(5′H)-one] was 501 to 5000 nM; that for `Cc1cc(N2CCN([C@H]3C=C(c4nc5c(c(=O)[nH]4)CC4(CC5)CC4)CC3)CC2)ncc1F` [Compound 137, (R)-2′-(3-(4-(5-fluoro-4-methylpyridin-2-yl)piperazin-1-yl)cyclopent-1-en-1-yl)-7′,8′-dihydro-3′H-spiro[cyclopropane-1,6′-quinazolin]-4′(5′H)-one] was 1 to 500 nM.
